{"source": "patent US6288110A", "about": "“Pharmaceutical compositions comprising disulfiram” (Yeda Research and Development Co Ltd., priority 1998, dated 2001)", "key": {"oxidases": {"tested_on": "oxidases", "conditions": "cited from earlier work"}, "BALB/MK keratinocytes": {"tested_on": "BALB/MK keratinocytes", "test": "Apoptosis by FACS in BALB/MK keratinocytes", "assay_type": "cell-based, murine", "conditions": "4 μM (not shown)", "method": "Cells were cultured in plastic tissue culture dishes for 48 hours in presence of growth media as described above, until reaching 40-50% confluency. Disulfiram was then added to the cells for 20 hours. The cells were removed from the plates by EDTA-trypsin and fixed in ice-cold 70% ethanol (BioLab, Israel) in -20° C. for 2 hr to overnight. The fixed cells (2-5×10^6) were washed once with HEPES-buffered saline (HBSS) and incubated with 0.5 mg/ml RNAseH (Boehringer Mannheim). Afterwards the cells were resuspended in HBSS containing 50 μg/ml propidium iodide (Sigma) and subsequently analyzed on a FACSort flow cytometer (Beckton Dickinson Inc.) using Lysis II software. For the analysis, 10,000 cells were examined from each sample. The percentage of the hypodiploid cells was measured (Darzynkiewicz, 1992; Afanasyev, 1993). The cell cycle histogram was divided into four regions according to the cell cycle phases: Ap, apoptotic cells; G1, diploid cells; S, intermediate cells; and G2 /M, tetraploid cells."}, "liver tumors": {"tested_on": "liver tumors", "conditions": "dimethyl- or diethylnitrosamine, rats; cited from earlier work"}, "mammary tumors": {"tested_on": "mammary tumors", "conditions": "N-2-fluorenylacetamide or N-hydroxy-N-2-fluorenylacetamide, rats; cited from earlier work"}, "[1]": {"tested_on": "capillary endothelial (BCE) cells", "test": "TUNEL assay for apoptosis, BCE cells", "assay_type": "cell-based, bovine", "conditions": "1 μM, 6 hours", "method": "Cells were cultured on microscope slides for 48 hours in presence of growth media as described above, until reaching 40-50% confluency. Disulfiram was then added to the cells for 6 hours or for 20 hours in the case of BALB/MK keratinocytes, fixed with 4% paraformaldehyde and washed three times with PBS. Apoptosis was analyzed by the in situ TUNEL staining carried out as described (Wride, 1994). Briefly, microscope slides were incubated for 15 min in 2×SSC buffer at 60° C., washed in DDW and incubated with 20 μg/ml proteinase K (Boehringer Mannheim) for 15 min at room temperature. After a wash with DDW, endogenous peroxidases were inactivated by incubating the slides with 2% H2 O2 in PBST (PBS with 0.05% Tween 20) for 10 min at room temperature. Slides were then incubated in TdT buffer (Boehringer Mannheim) for 5 min at room temperature, and a reaction mixture containing 5×TdT buffer and 1 μl biotin-21-dUTP (Clontech, 1 mM stock) and 8 units of the TdT enzyme (Boehringer Mannheim) in total volume of 50 μl was subsequently added. The reactions were carried out at 37° C. for 1.5 hr in a humid chamber. The slides were washed in 2×SSC, DDW and finally with PBS and covered with 10% skim milk in PBST for 15 min. […]"}, "rats": {"tested_on": "rats", "conditions": "0.05% in diet for 2 years; cited from earlier work"}, "cisplatin nephrotoxicity": {"tested_on": "cisplatin nephrotoxicity", "conditions": "humans; cited from earlier work"}, "[2]": {"tested_on": "bovine capillary endothelial cells (BCE)", "test": "DNA synthesis (3H-thymidine incorporation) in BCE cells", "assay_type": "cell-based", "method": "Brain bovine capillary endothelial cells (BCE) and bovine vascular smooth muscle cells (BSMC), kindly provided by Prof. Israel Vlodavsky (Hadassah Medical School, Jerusalem, Israel), were cultured at 37° C. in low glucose DMEM (1 g/liter) supplemented with 10% calf serum (HyClone, Logan, Utah, U.S.A.), a serum-free supplement: biogro-1 (Beth Haemek, Israel) and GPS.\nBovine capillary endothelial cells (BCE) and bovine aortic BSMC were plated in 24-well plates (6000 cells per well) in 500 μl DMEM medium supplemented with 10% Colorado calf serum (CCS) (GIBCO, USA) and GPS. After 24 hours, medium was changed to starvation medium (2% CCS, 0.5% BSA, GPS) for 24 hours. ^3 H-methyl-thymidine (5 μCi/ml) was added for the last 6 hours. DNA synthesis assays were performed as described above, in triplicates. DNA synthesis assays in BALB/MK keratinocytes were performed as previously described (Marikovsky, 1995).-DNA synthesis assays were performed in triplicates.\nDisulfiram was prepared in 0.1 mM stock solutions in DMSO. Control samples were incubated with the appropriate concentration of DMSO. Inhibition was calculated as percentage of DNA synthesis of control.\nTo determine whether disulfiram acts directly on endothelial cells rather than on accessory cells such as macrophages and mast cells that can be responsible for the development of an angiogenic response in vivo, the effect of the drug on the growth of BCE cells was examined in vitro as described in section (c) of \"Materials and Methods\" above. DNA synthesis in BCE cells was measured in presence of increasing concentrations of disulfiram incubated for 24 hours with the cells. […] Maximal inhibitory activity (80%) for BSMC was at 0.5-1 μM disulfiram, while maximal inhibitory activity for C6 glioma cells or BALB/MK keratinocytes was at concentrations 10 fold higher (2-3 μM) than those for endothelial cells (0.2-0.5 μM).\nTo examine the time course of the effect of disulfiram and whether the effect was reversible, cells were incubated with disulfiram for various periods of time (1, 2, 4 and 24 hours), then washed away and DNA synthesis was determined. One to 4 hours of exposure to disulfiram were enough to induce maximal inhibitory effect at concentrations ranging from 0.5 μM for BCE cells (FIG. 3A) to 5 μM for BALB/MK keratinocytes (FIG. 3C) and C6 glioma cells (FIG. 3D). […] BSMC were less sensitive as far as time course is concerned when incubated with 1 μM disulfiram. Following 4 hours of incubation with 1 μM disulfiram, DNA synthesis inhibition in BSMC reached only 50% (FIG. 3B). The data shown here indicate that the damage for capillary endothelial cells, following a short incubation of 1 to 2 hours, was maximal and that, at least in a time scale of 24 hours, this damage was non-reversible."}, "[3]": {"tested_on": "Sarcoma 180, EL-4 leukemia or L1210 murine leukemia", "conditions": "cited from earlier work"}, "fibroblasts": {"tested_on": "fibroblasts", "test": "Induction of apoptosis, fibroblasts", "assay_type": "cell-based"}, "[4]": {"conditions": "cited from earlier work"}}, "note": "Entries after “also recorded” stand apart in the source; their conditions may differ. Read-outs that look alike come from different tables or passages of the source."}
{"smiles": "CCN(CC)C(=S)SSC(=S)N(CC)CC", "note": "[disulfiram, Bis(diethylthiocarbamoyl) disulfide]", "values": [{"measurement": "inhibition of oxidases", "setting": "oxidases", "result": "inhibit"}, {"measurement": "apoptosis by FACS", "setting": "BALB/MK keratinocytes", "result": "did not exhibit induction of apoptosis"}, {"measurement": "interference with induction of liver tumors", "setting": "liver tumors", "result": "interfere with induction of cancer"}, {"measurement": "incidence of mammary tumors", "setting": "mammary tumors", "result": "reduce the incidence of mammary tumors"}, {"measurement": "apoptosis by TUNEL method", "setting": "[1]", "result": "labeled; also recorded: induced into apoptosis"}, {"measurement": "increase of any tumor type", "setting": "rats", "result": "did not increase any tumor type"}, {"measurement": "protection against cisplatin nephrotoxicity", "setting": "cisplatin nephrotoxicity", "result": "did not show any protection"}, {"measurement": "inhibition of DNA synthesis in BCE cells (in words)", "setting": "[2]; 0.1-0.5 μM, 24 hours", "result": "inhibit DNA synthesis in BCE cells in a dose dependent manner"}, {"measurement": "reversibility of damage for capillary endothelial cells", "setting": "[2]; 1 to 2 hours incubation, time scale of 24 hours", "result": "non-reversible"}, {"measurement": "concentration used in vitro for endothelial cells (inhibition of growth)", "setting": "[2]; BCE", "result": "0.1 to 0.2", "unit": "µM"}, {"measurement": "inhibition of DNA synthesis, short incubation (in words)", "setting": "[2]; BCE, 0.5 μM, 1-2 hours of incubation", "result": "near maximal inhibition of DNA synthesis"}, {"measurement": "persistence of inhibitory effect after short exposure", "setting": "[2]; BCE, 24 hours following short exposure", "result": "inhibitory effect seemed to be maintained"}, {"measurement": "IC (maximal)", "setting": "[2]; Bos taurus, Endothelial cell, BCE (endothelial cells), 24 hours, read-out: concentration of maximal inhibitory activity (DNA synthesis)", "result": "0.2 to 0.5", "unit": "µM"}, {"measurement": "IC (maximal)", "setting": "[2]; Bos taurus, Endothelial cell, BCE, 1 to 4 hours of exposure, washed, read-out: concentration inducing maximal inhibitory effect on DNA synthesis, short exposure", "result": 0.5, "unit": "µM"}, {"measurement": "IC100", "setting": "[2]; Bos taurus, Endothelial cell, BCE, 24 hours, read-out: concentration of complete inhibition of DNA synthesis", "result": 0.5, "unit": "µM"}, {"measurement": "effect on anti-tumor activity of ifosfamide and cyclophosphamide", "setting": "[3]", "result": "without compromising their anti-tumor activity"}, {"measurement": "induction of apoptosis", "setting": "fibroblasts", "result": "fails to induce apoptosis"}, {"measurement": "solubility in water", "setting": "[4]", "result": "soluble in water"}, {"measurement": "solubility in methanol, acetone or chloroform", "setting": "[4]; hydrophobic solutions", "result": "solubilizes better"}]}
